# Measurements as given in patent US20090143279A1 (priority 2007, published 2009).
# Where two headings read alike, the source gives them in different places.
# Key:
# [1] = tested on: mitochondrial membrane potential; assay type: cell-based, mouse; conditions: for ΔΨm (composite Z-score): normalized score vs mock-treated (DMSO) wells
# reactive oxygen species = assay type: cell-based, mouse; conditions: for ROS (composite Z-score): normalized score vs mock-treated (DMSO) wells
# OXPHOS gene expression = assay type: cell-based, mouse; conditions: for GE-HTS (composite Z-score): normalized score vs mock-treated (DMSO) wells
# nuOXPHOS transcripts = assay type: cell-based, mouse; conditions: for nucOX (composite Z-score): normalized score vs mock-treated (DMSO) wells
# mtOXPHOS transcripts = assay type: cell-based, mouse; conditions: for mitoOX (composite Z-score): normalized score vs mock-treated (DMSO) wells
# cytochrome c = assay type: cell-based, mouse; conditions: for cyt c (composite Z-score): normalized score vs mock-treated (DMSO) wells
# C2C12 myotubes = conditions: for Viability (composite Z-score): normalized score vs mock-treated (DMSO) wells
# [2] = tested on: cellular dehydrogenase activity; conditions: for MTT (composite Z-score): normalized score vs mock-treated (DMSO) wells
# [3] = composite Z-score vs DMSO, Conc 20 μM
# [4] = composite Z-score vs DMSO wells, Conc 20 μM
# [5] = composite Z-score vs mock-treated (DMSO) wells, Conc 20 μM
# [6] = composite Z-score vs mock-treated (DMSO) wells, concentration of each compound in μM
# [7] = normalized composite Z-score vs mock-treated (DMSO) wells, Conc 20 μM
# Sequence of cytochrome c (P62897 whole entry): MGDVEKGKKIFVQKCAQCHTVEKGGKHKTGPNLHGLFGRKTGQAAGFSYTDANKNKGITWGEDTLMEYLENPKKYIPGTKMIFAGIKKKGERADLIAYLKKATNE
molecule,measurement,setting,value
"O=C(C=C(O)c1ccccc1)c1ccccc1O [2′,beta-dihydroxychalcone]",ΔΨm,[1]; [3],−0.044
same,ROS,reactive oxygen species; [3],0.194
same,GE-HTS,OXPHOS gene expression; [3],0.097
same,nucOX,nuOXPHOS transcripts; [3],−0.188
same,mitoOX,mtOXPHOS transcripts; [3],0.600
same,cyt c,cytochrome c; [3],−0.260
same,Viability,C2C12 myotubes; [3],−0.801
same,MTT,[2]; [3],−1.791
3beta-hydroxydeoxydesacetoxy-7-oxogedunin,ΔΨm (composite Z-score),[1]; Conc 20 μM,−0.064
same,ROS (composite Z-score),reactive oxygen species; Conc 20 μM,0.662
same,GE-HTS (composite Z-score),OXPHOS gene expression; Conc 20 μM,−0.864
same,nucOX (composite Z-score),nuOXPHOS transcripts; Conc 20 μM,−1.027
same,mitoOX (composite Z-score),mtOXPHOS transcripts; Conc 20 μM,−0.319
same,cyt c (composite Z-score),cytochrome c; Conc 20 μM,0.306
same,Viability (composite Z-score),C2C12 myotubes; Conc 20 μM,0.688
same,MTT (composite Z-score),[2]; Conc 20 μM,−0.615
OCc1ccccc1O [salicyl alcohol],ΔΨm,[1]; [4],−0.590
same,ROS,reactive oxygen species; [4],0.479
same,GE-HTS,OXPHOS gene expression; [4],−0.486
same,nucOX,nuOXPHOS transcripts; [4],−0.433
same,mitoOX,mtOXPHOS transcripts; [4],−0.498
same,cyt c,cytochrome c; [4],0.424
same,Viability,C2C12 myotubes; [4],0.377
same,MTT,[2]; [4],−0.178
C[C@]12CC[C@H]3C(=CCc4cc(O)ccc43)[C@@H]1CCC2=O [equilin],ΔΨm,[1],−0.408
same,ROS,reactive oxygen species,0.259
same,GE-HTS,OXPHOS gene expression,−0.626
same,nucOX,nuOXPHOS transcripts,−0.538
same,mitoOX,mtOXPHOS transcripts,−0.676
same,cyt c,cytochrome c,−0.069
same,Viability,C2C12 myotubes,−0.882
same,MTT,[2],−2.270
Sc1nc2ccccc2s1 [2-mercaptobenzothiazole],ΔΨm (composite Z-score),[1]; Conc 20 μM,−0.486
same,ROS (composite Z-score),reactive oxygen species; Conc 20 μM,0.354
same,GE-HTS (composite Z-score),OXPHOS gene expression; Conc 20 μM,−0.211
same,nucOX (composite Z-score),nuOXPHOS transcripts; Conc 20 μM,−0.231
same,mitoOX (composite Z-score),mtOXPHOS transcripts; Conc 20 μM,−0.097
same,cyt c (composite Z-score),cytochrome c; Conc 20 μM,−0.026
same,Viability (composite Z-score),C2C12 myotubes; Conc 20 μM,−0.830
same,MTT (composite Z-score),[2]; Conc 20 μM,−0.672
"COc1cc(O)c2c(=O)cc(C)oc2c1CC=C(C)C [heteropeucenin, methyl ether]",ΔΨm,[1]; [5],0.886
same,ROS,reactive oxygen species; [5],0.256
same,GE-HTS,OXPHOS gene expression; [5],0.299
same,nucOX,nuOXPHOS transcripts; [5],0.328
same,mitoOX,mtOXPHOS transcripts; [5],0.217
same,cyt c,cytochrome c; [5],0.416
same,Viability,C2C12 myotubes; [5],−0.034
same,MTT,[2]; [5],−1.476
O=C(O)CN(CC(=O)O)Cc1cc2c(cc1O)Oc1cc(O)c(CN(CC(=O)O)CC(=O)O)cc1C21OC(=O)c2ccccc21 [calcein],ΔΨm,[1]; [4],−3.437
same,ROS,reactive oxygen species; [4],11.668
same,GE-HTS,OXPHOS gene expression; [4],−0.625
same,nucOX,nuOXPHOS transcripts; [4],−0.468
same,mitoOX,mtOXPHOS transcripts; [4],−0.829
same,cyt c,cytochrome c; [4],0.465
same,Viability,C2C12 myotubes; [4],5.567
same,MTT,[2]; [4],−0.243
CN[C@H]1C[C@@H](N)[C@H](O)[C@@H](O[C@@H]2O[C@H](CO)[C@H](O)[C@@H]3OC4(O[C@H]23)O[C@H]([C@@H](N)CO)[C@H](O)[C@H](O)[C@H]4O)[C@@H]1O (some centres unmarked) [hygromycin B],ΔΨm,[1]; [6],−0.752
same,ROS,reactive oxygen species; [6],0.707
same,GE-HTS,OXPHOS gene expression; [6],0.558
same,nucOX,nuOXPHOS transcripts; [6],0.800
same,mitoOX,mtOXPHOS transcripts; [6],−0.054
same,cyt c,cytochrome c; [6],−0.478
same,Viability,C2C12 myotubes; [6],−1.526
same,MTT,[2]; [6],−2.041
CC[N+]1(C)CCCC(OC(=O)C(O)(c2ccccc2)c2ccccc2)C1 (centres unmarked) [pipenzolate],ΔΨm,[1]; [4],−0.205
same,ROS,reactive oxygen species; [4],0.166
same,GE-HTS,OXPHOS gene expression; [4],−0.495
same,nucOX,nuOXPHOS transcripts; [4],−0.411
same,mitoOX,mtOXPHOS transcripts; [4],−0.569
same,cyt c,cytochrome c,0.192
same,cyt c,cytochrome c; [4],−0.954
same,Viability,C2C12 myotubes; [4],0.001
same,MTT,[2]; [4],0.060
CC1(C)C(=O)C=C[C@]2(C)[C@H]3CC[C@@]4(C)[C@H](c5ccoc5)OC(=O)[C@H]5O[C@]54[C@]3(C)C(=O)C[C@@H]12 [deacetoxy-7-oxogedunin],ΔΨm,[1]; [5],1.322
same,ROS,reactive oxygen species; [5],−0.301
same,GE-HTS,OXPHOS gene expression; [5],−0.407
same,nucOX,nuOXPHOS transcripts; [5],−0.287
same,mitoOX,mtOXPHOS transcripts; [5],−0.632
same,cyt c,cytochrome c; [5],0.047
same,Viability,C2C12 myotubes; [5],0.089
same,MTT,[2]; [5],−0.029
CCC(C)C(=O)O[C@@H]1C[C@@]2(C)[C@H](c3ccoc3)OC(=O)CC23OC2(C)O[C@]14[C@]1(C)[C@@H](CC(=O)OC)C5(C)CC1(O)[C@](O)(C5OC(=O)C1(C)OC1C)[C@@H](OC(C)=O)[C@]34O2 (some centres unmarked) [utilin],ΔΨm,[1]; [5],−0.122
same,ROS,reactive oxygen species; [5],0.482
same,GE-HTS,OXPHOS gene expression; [5],−0.939
same,nucOX,nuOXPHOS transcripts; [5],−0.861
same,mitoOX,mtOXPHOS transcripts; [5],−0.975
same,cyt c,cytochrome c; [5],−0.038
same,Viability,C2C12 myotubes; [5],1.131
same,MTT,[2]; [5],−1.571
Oc1ccc2c(c1)OC[C@H]1c3cc4c(cc3O[C@@H]21)OCO4 [maackiain],ΔΨm (composite Z-score),[1]; Conc 20 μM,0.391
same,ROS (composite Z-score),reactive oxygen species; Conc 20 μM,0.879
same,GE-HTS (composite Z-score),OXPHOS gene expression; Conc 20 μM,−0.561
same,nucOX (composite Z-score),nuOXPHOS transcripts; Conc 20 μM,−0.285
same,mitoOX (composite Z-score),mtOXPHOS transcripts; Conc 20 μM,−1.049
same,cyt c (composite Z-score),cytochrome c; Conc 20 μM,0.969
same,Viability (composite Z-score),C2C12 myotubes; Conc 20 μM,−1.052
same,MTT (composite Z-score),[2]; Conc 20 μM,−0.578
"COc1ccc2c(c1OC)OC[C@@H](c1ccc(OC)c(OC)c1OC)C2 [duartin, dimethyl ether]",ΔΨm,[1]; [5],0.556
same,ROS,reactive oxygen species; [5],0.796
same,GE-HTS,OXPHOS gene expression; [5],−1.156
same,nucOX,nuOXPHOS transcripts; [5],−1.362
same,mitoOX,mtOXPHOS transcripts; [5],−0.571
same,cyt c,cytochrome c; [5],−0.531
same,Viability,C2C12 myotubes; [5],1.330
same,MTT,[2]; [5],−0.975
CNC(=O)ON=C(C)SC [methomyl],ΔΨm,[1]; [3],−0.493
same,ROS,reactive oxygen species; [3],0.231
same,GE-HTS,OXPHOS gene expression; [3],−0.703
same,nucOX,nuOXPHOS transcripts; [3],−0.805
same,mitoOX,mtOXPHOS transcripts; [3],−0.317
same,cyt c,cytochrome c; [3],−0.007
same,Viability,C2C12 myotubes; [3],1.361
same,MTT,[2]; [3],−1.481
COc1ccc2c(c1)CC[C@@H]1[C@@H]2CC[C@]2(C)[C@@H](O)CC[C@@H]12 [estradiol methyl ether],ΔΨm,[1]; [3],−0.007
same,ROS,reactive oxygen species; [3],0.411
same,GE-HTS,OXPHOS gene expression; [3],0.099
same,nucOX,nuOXPHOS transcripts; [3],0.214
same,mitoOX,mtOXPHOS transcripts; [3],−0.209
same,cyt c,cytochrome c; [3],1.670
same,Viability,C2C12 myotubes; [3],0.510
same,MTT,[2]; [3],−0.685
CC(=O)O[C@H]1CC[C@]2(C)[C@H]3C(=O)C=C4[C@@H]5[C@@H](C)[C@H](C)CC[C@]5(C(=O)O)CC[C@@]4(C)[C@]3(C)CC[C@H]2C1(C)C [11-oxoursolic acid acetate],ΔΨm,[1]; [7],−0.524
same,ROS,reactive oxygen species; [7],0.280
same,GE-HTS,OXPHOS gene expression; [7],−0.240
same,nucOX,nuOXPHOS transcripts; [7],−0.304
same,mitoOX,mtOXPHOS transcripts; [7],−0.027
same,cyt c,cytochrome c; [7],−1.393
same,Viability,C2C12 myotubes; [7],1.094
same,MTT,[2]; [7],−1.214
Cc1cc(O)c(C=O)c(O)c1C(=O)O [haematommic acid],ΔΨm,[1]; [3],0.002
same,ROS,reactive oxygen species; [3],−1.077
same,GE-HTS,OXPHOS gene expression; [3],−0.410
same,nucOX,nuOXPHOS transcripts; [3],−0.078
same,mitoOX,mtOXPHOS transcripts; [3],−1.067
same,cyt c,cytochrome c; [3],0.631
same,Viability,C2C12 myotubes; [3],−0.412
same,MTT,[2]; [3],−0.740
CCC[C@H]1CC2=C(C[C@@H](CC)CC3=C1C(=O)OC3=O)C(=O)OC2=O [byssochlamic acid],ΔΨm (composite Z-score),[1]; Conc 20 μM,−0.092
same,ROS (composite Z-score),reactive oxygen species; Conc 20 μM,0.253
same,GE-HTS (composite Z-score),OXPHOS gene expression; Conc 20 μM,−0.230
same,nucOX (composite Z-score),nuOXPHOS transcripts; Conc 20 μM,−0.069
same,mitoOX (composite Z-score),mtOXPHOS transcripts; Conc 20 μM,−0.458
same,cyt c (composite Z-score),cytochrome c; Conc 20 μM,−1.053
same,Viability (composite Z-score),C2C12 myotubes; Conc 20 μM,−0.241
same,MTT (composite Z-score),[2]; Conc 20 μM,−0.488
CC1(C)OC(=O)C=CC2(C)C1CC(O)C1(C)C2CCC2(C)C(c3ccoc3)OC(=O)C3OC321 (centres unmarked) [obacunol],ΔΨm,[1]; [5],0.464
same,ROS,reactive oxygen species; [5],−0.134
same,GE-HTS,OXPHOS gene expression; [5],−0.906
same,nucOX,nuOXPHOS transcripts; [5],−0.927
same,mitoOX,mtOXPHOS transcripts; [5],−0.734
same,cyt c,cytochrome c; [5],0.859
same,Viability,C2C12 myotubes; [5],2.016
same,MTT,[2]; [5],−0.982
CC[C@H](C)[C@H](N)C(=O)N1CCC[C@H]1C(=O)N[C@H](C(=O)O)[C@@H](C)CC [diprotin A],ΔΨm,[1]; [6],0.357
same,ROS,reactive oxygen species; [6],0.300
same,GE-HTS,OXPHOS gene expression; [6],0.099
same,nucOX,nuOXPHOS transcripts; [6],−0.102
same,mitoOX,mtOXPHOS transcripts; [6],0.490
same,cyt c,cytochrome c; [6],−0.975
same,Viability,C2C12 myotubes; [6],−0.788
same,MTT,[2]; [6],−1.068
